Holding throughout (type): in vivo
Experiment [1] has as its system Erysiphe graminis tritici (powdery mildew). Put plainly: Greenhouse Test 1, foliar spray fungicide screen (POWD MDEW), host wheat. The settings on record: disease control rating, 400 ppm (+++ at 100 ppm).
For experiment [2], the system named is Pyricularia oryzae (rice blast). The conditions noted are these: disease control rating, foliar spray, host rice; 400 ppm (+++ at 100 ppm).
In experiment [3] the test system is Puccinia recondita tritici (leaf rust). Put plainly: Greenhouse Test 1, foliar spray fungicide screen (LEAF RUST), host wheat. The settings on record: disease control rating, 400 ppm (+++ at 100 ppm).
Experiment [4] deals with Botrytis cinerea (gray mold). Put plainly: Greenhouse Test 1, foliar spray fungicide screen (GRAY MOLD), host grape berries. The conditions noted are these: disease control rating, 400 ppm (+++ at 100 ppm).
The subject of experiment [5] is Pseudoperonospora cubensis (downy mildew). Put plainly: Greenhouse Test 1, foliar spray fungicide screen (DOWN MDEW), host squash. The conditions noted are these: disease control rating, 400 ppm (+++ at 100 ppm).
Experiment [6] has as its system Southern corn rootworm (Diabrotica undecimpuctata howardi Barber). Put plainly: Mite/insect screen, soil treatment (CRW). The conditions noted are these: Diabrotica, percent mortality, soil treatment, read-out: CRW RESULTS %; for mortality at 12 ppm: CRW rate 12.00 ppm; for mortality at 24 ppm: CRW rate 24.00 ppm. Put shortly: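 Compounds dissolved in acetone/alcohol (50:50) with Toximul R/S emulsifiers, diluted with water. Soil (15 g, with presoaked corn seed) treated with 1 mL test solution, dried 6–12 h, then five 2–3 instar larvae added; held at 23°C. Percent mortality and phytotoxicity scored after standard exposure periods.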

The subject of experiment [7] is southern armyworm (Spodopetra eridania Cramer). Put plainly: Mite/insect screen, sprayed squash leaves (SAW). The settings on record: Spodoptera eridania, percent mortality, read-out: SAW RESULTS %; for mortality at 200 ppm: spray rate 200 ppm; for mortality at 400 ppm: spray rate 400 ppm. Put shortly: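 For the armyworm test, two uninfested sprayed leaves were excised, once dry for an hour, and placed in a Petri dish holding larvae. Spray solutions came from an emulsifier-containing 50:50 acetone/alcohol formulation diluted with water and were applied to runoff.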

For experiment [8], the system named is Twospotted spider mites (Tetranychus urticae Koch). Description: Mite/insect screen, sprayed squash cotyledons (SM). The conditions noted are these: Tetranychus urticae, percent mortality, read-out: SM RESULTS %; for mortality at 200 ppm: spray rate 200 ppm; for mortality at 400 ppm: spray rate 400 ppm. In short, it runs like this: (§1)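 Steps: formulate compound in acetone/alcohol 50:50 carrying emulsifiers; dilute with water; spray leaves until runoff on upper and lower surfaces; air-dry one hour; for armyworm, excise two […] leaves into a dish of larvae; after exposure, score mortality and plant injury.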

Experiment [9] deals with melon aphids (Aphis gossypii Glover). Put plainly: Mite/insect screen, sprayed squash cotyledons (MA). The conditions noted are these: Aphis gossypii, percent mortality, read-out: MA RESULTS %; for mortality at 200 ppm: spray rate 200 ppm; for mortality at 400 ppm: spray rate 400 ppm. In short, it runs like this: as §1

The results in this text go back to EP0326329B1, “Quinazoline derivatives useful as insecticides” (Dow AgroSciences LLC, priority 1988, dated 1989).

Take `Fc1cccc2c(OCCc3ccccc3C(F)(F)F)ncnc12` [Example 56, 8-fluoro-4-[2-[2-(trifluoromethyl)phenyl]ethoxy]quinazoline]: in [1], the “POWD MDEW” value was “+++ (+++ = 90-100% control at 100 ppm)”. For the same compound, the “RICE BLAST” value in experiment [2] is on record as “+++ (+++ = 90-100% control at 100 ppm)”. Moreover, the “LEAF RUST” value in experiment [3] is on record as “+++ (+++ = 90-100% control at 100 ppm)”. The “GRAY MOLD” value in [4] is given as “- (- = 0-19% control at 400 ppm)”. For the same compound, the “DOWN MDEW” value in experiment [5] is listed as “+++ (+++ = 90-100% control at 100 ppm)”. In addition, in experiment [6], the mortality at 12 ppm came out at 0% and the mortality at 24 ppm stood at 0%. Besides, in experiment [7], the mortality at 200 ppm turned out to be 0% and the mortality at 400 ppm is 0%. Moreover, in experiment [8], the mortality at 200 ppm worked out at 40% and the mortality at 400 ppm worked out at 0%. In experiment [9], the mortality at 200 ppm came to 100% and the mortality at 400 ppm was determined as 0%.
On to `CC(COc1ncnc2ccccc12)c1ccccc1` (stereo not shown) [Example 60, 4-(2-phenylpropoxy)quinazoline], for which the “POWD MDEW” value in experiment [1] is “+ (+ = 20-89% control at 400 ppm)”. Also, the “RICE BLAST” value in experiment [2] is reported as “+++ (+++ = 90-100% control at 100 ppm)”. Further, the “LEAF RUST” value in [3] was “+ (+ = 20-89% control at 400 ppm)”. Besides, the “GRAY MOLD” value in experiment [4] is recorded as “- (- = 0-19% control at 400 ppm)”. The “DOWN MDEW” value in [5] was “++ (++ = 90-100% control at 400 ppm)”. For the same compound, the mortality at 24 ppm in [6] came out at 0%. Besides, the mortality at 400 ppm in experiment [7] is 0%; in experiment [8], 100%; in experiment [9], 100%.
As for `Cc1ccc2ncnc(NCCc3cccc(Oc4ccccc4)c3)c2c1` [Example 190, 6-methyl-N-[2-(3-phenoxyphenyl)ethyl]-4-quinazolinamine], the “POWD MDEW” value in experiment [1] is “+++ (+++ = 90-100% control at 100 ppm)”. Moreover, the “RICE BLAST” value in [2] was “+++ (+++ = 90-100% control at 100 ppm)”. Further, in [3], the “LEAF RUST” value is given as “+++ (+++ = 90-100% control at 100 ppm)”. The “GRAY MOLD” value in experiment [4] is “- (- = 0-19% control at 400 ppm)”. Besides, in experiment [5], the “DOWN MDEW” value is on record as “+++ (+++ = 90-100% control at 100 ppm)”. In [6], the mortality at 12 ppm is 0% and the mortality at 24 ppm worked out at 0%. In experiment [7], the mortality at 200 ppm came to 0% and the mortality at 400 ppm is 0%. Further, in experiment [8], the mortality at 200 ppm stood at 80% and the mortality at 400 ppm amounted to 0%. Besides, in [9], the mortality at 200 ppm was 40% and the mortality at 400 ppm stood at 0%.
As to `Fc1cccc2c(NCCc3ccc(Oc4ccccc4)cc3)ncnc12` [Example 101, 8-fluoro-N-[2-(4-phenoxyphenyl)ethyl]-4-quinazolinamine], the “POWD MDEW” value in experiment [1] is reported as “+ (+ = 20-89% control at 400 ppm)”. In addition, the “RICE BLAST” value in [2] was “+++ (+++ = 90-100% control at 100 ppm)”. In addition, the “LEAF RUST” value in experiment [3] is “- (- = 0-19% control at 400 ppm)”. Besides, the “GRAY MOLD” value in experiment [4] was “++ (++ = 90-100% control at 400 ppm)”. Moreover, the “DOWN MDEW” value in experiment [5] is recorded as “+++ (+++ = 90-100% control at 100 ppm)”. In addition, the mortality at 12 ppm in [6] is 100%. Besides, the mortality at 24 ppm in experiment [6] was determined as 0%. For the same compound, the mortality at 200 ppm in experiment [7] amounted to 100%; in [8], 100%; in [9], 80%. The mortality at 400 ppm is 0% in experiment [7], 100% in experiment [8] and 100% in [9].
On to `c1ccc(CCCCOc2ncnc3ccccc23)cc1` [Example 42, 4-(4-phenylbutoxy)quinazoline], for which, in experiment [1], the “POWD MDEW” value was “+++ (+++ = 90-100% control at 100 ppm)”. Further, in experiment [2], the “RICE BLAST” value was “+++ (+++ = 90-100% control at 100 ppm)”. In addition, the “LEAF RUST” value in experiment [3] was “+++ (+++ = 90-100% control at 100 ppm)”. In addition, the “GRAY MOLD” value in experiment [4] is given as “- (- = 0-19% control at 400 ppm)”. For the same compound, the “DOWN MDEW” value in [5] was “+++ (+++ = 90-100% control at 100 ppm)”. Moreover, in [6], the mortality at 12 ppm amounted to 0% and the mortality at 24 ppm worked out at 0%. For the same compound, in experiment [7], the mortality at 200 ppm stood at 0% and the mortality at 400 ppm came to 50%. Also, in experiment [8], the mortality at 200 ppm is 100% and the mortality at 400 ppm is 100%. Further, in experiment [9], the mortality at 200 ppm was determined as 100% and the mortality at 400 ppm worked out at 100%.
